From ChEMBL document CHEMBL3739282, “An efficient green synthesis of 2-arylbenzothiazole analogues as potent antibacterial and anticancer agents” (Bioorg Med Chem Lett, 2016)
Converted amounts (≈) assume the structure as drawn.

How the values were obtained:
[1] = tested on: Salmonella; assay: Antibacterial activity against Salmonella assessed as growth inhibition incubated for 24 hrs at 37 degC by agar well diffusion method; assay type: functional
[2] = tested on: Escherichia coli; assay: Antibacterial activity against Escherichia coli assessed as growth inhibition incubated for 24 hrs at 37 degC by agar well diffusion method; assay type: functional
[3] = tested on: Staphylococcus aureus; assay: Antibacterial activity against Staphylococcus aureus assessed as growth inhibition incubated for 24 hrs at 37 degC by agar well diffusion method; assay type: functional
[4] = tested on: Bacillus subtilis; assay: Antibacterial activity against Bacillus subtilis assessed as growth inhibition incubated for 24 hrs at 37 degC by agar well diffusion method; assay type: functional
[5] = tested on: HeLa; assay: Cytotoxicity against human HeLa cells assessed as cell death after 24 hrs by MTT assay; assay type: functional, cell-based
[6] = Stability of the compound in GSH at 10^-5 M after 48 hrs by UV-vis spectroscopic analysis; assay type: physicochemical; conditions: 10 µM
[7] = tested on: MCF7; assay: Cytotoxicity against human MCF7 cells assessed as cell death after 24 hrs by MTT assay; assay type: functional, cell-based; conditions: MCF7, 24 h

| Compound | MIC [1] [µg/mL] | MIC [2] [µg/mL] | MIC [3] [µg/mL] | MIC [4] [µg/mL] | IC50 [5] [µM] | Stability [6] | IC50 [7] [µM] |
| --- | --- | --- | --- | --- | --- | --- | --- |
| NC[C@H]1O[C@H](O[C@H]2[C@H](O)[C@@H](O[C@H]3O[C@H](CO)[C@@H](O)[C@H](N)[C@H]3O)[C@H](N)C[C@@H]2N)[C@H](N)C[C@@H]1O [TOBRAMYCIN] | 3 (≈ 6.42 µM) | 3 (≈ 6.42 µM) | 1.5 (≈ 3.21 µM) | 3 (≈ 6.42 µM) |  |  |  |
| c1ccc(-c2nc3ccccc3s2)cc1 [2-PHENYLBENZO[D]THIAZOLE] | 25 (≈ 118 µM) | 50 (≈ 237 µM) | 50 (≈ 237 µM) | 25 (≈ 118 µM) | 22.1 | Stable | 18.5 |
| GENTAMICIN | 2 | 2 | 1 | 2 |  |  |  |
| Clc1ccccc1-c1nc2ccccc2s1 | 12.5 (≈ 50.9 µM) | 12.5 (≈ 50.9 µM) | 12.5 (≈ 50.9 µM) | 12.5 (≈ 50.9 µM) | 18.2 |  | 10.7 |
| O=C(O)c1cn(C2CC2)c2cc(N3CCNCC3)c(F)cc2c1=O [CIPROFLOXACIN] | 10 (≈ 30.2 µM) |  |  | 25 (≈ 75.4 µM) |  |  |  |
| c1ccc2cc(-c3nc4ccccc4s3)ccc2c1 | > 200 | > 200 | > 200 | > 200 | 48.2 |  | 42.3 |
| c1csc(-c2nc3ccccc3s2)c1 | 25 (≈ 115 µM) | 12.5 (≈ 57.5 µM) | 12.5 (≈ 57.5 µM) | 25 (≈ 115 µM) | 28.5 |  | 22.6 |
| c1ccc(-c2nc3ccccc3s2)nc1 | 12.5 (≈ 58.9 µM) | 12.5 (≈ 58.9 µM) | 6.25 (≈ 29.4 µM) | 12.5 (≈ 58.9 µM) | 27.5 | Stable | 20.4 |
| Cc1ccccc1-c1nc2ccccc2s1 | 100 (≈ 444 µM) | 100 (≈ 444 µM) | 100 (≈ 444 µM) | 100 (≈ 444 µM) | 28.2 |  | 20.4 |
| COc1cccc(-c2nc3ccccc3s2)c1O | > 200 | > 200 | > 200 | > 200 | 32.6 |  | 28.6 |
| c1ccc2[nH]c(-c3nc4ccccc4s3)cc2c1 | 3.12 (≈ 12.5 µM) | 3.12 (≈ 12.5 µM) | 3.12 (≈ 12.5 µM) | 3.12 (≈ 12.5 µM) | 15.2 |  | 9.26 |
| Oc1ccccc1-c1nc2ccccc2s1 | 100 (≈ 440 µM) | 100 (≈ 440 µM) | 100 (≈ 440 µM) | 100 (≈ 440 µM) | 30.6 |  | 26.8 |
| c1coc(-c2nc3ccccc3s2)c1 | 50 (≈ 248 µM) | 50 (≈ 248 µM) | 50 (≈ 248 µM) | 50 (≈ 248 µM) | 22.6 |  | 17.6 |
| Brc1cccc(-c2nc3ccccc3s2)c1 | 12.5 (≈ 43.1 µM) | 12.5 (≈ 43.1 µM) | 12.5 (≈ 43.1 µM) | 12.5 (≈ 43.1 µM) | 17.4 |  | 10.5 |
| Fc1ccc(-c2nc3ccccc3s2)cc1 | 12.5 (≈ 54.5 µM) | 6.25 (≈ 27.3 µM) | 6.25 (≈ 27.3 µM) | 12.5 (≈ 54.5 µM) | 16.6 |  | 9.85 |
